Laboratory results as given in ChEMBL document CHEMBL5523717, “Pyrrole-containing hybrids as potential anticancer agents: An insight into current developments and structure-activity relationships” (Eur J Med Chem, 2024).

Assays:
Mushroom tyrosinase [1] = molecular target: T1, Mushroom tyrosinase (Agaricus bisporus, UniProt O42713+Q00024+C7FF04+C7FF05); experiment: Inhibition of mushroom Tyrosinase; assay type: protein assay
Tyrosinase = Tyrosinase (Homo sapiens, UniProt P14679); experiment: Inhibition of human tyrosinase
HUVEC = experiment: Antiproliferative activity against VEGF-stimulated HUVEC assessed as inhibition of cell growth incubated for 3 days by MTT assay; assay type: functional, cell-based; conditions: Homo sapiens, 72 h
A549 [2] = experiment: Cytotoxicity against human A549 cells assessed as reduction in cell growth incubated for 24 hrs by MTT assay; assay type: functional, cell-based; conditions: A549, 24 h
MCF7 [3] = experiment: Cytotoxicity against human MCF7 cells assessed as reduction in cell growth incubated for 24 hrs by MTT assay; assay type: functional, cell-based; conditions: MCF7, 24 h
MCF-12A = experiment: Cytotoxicity against human MCF-12A cells assessed as reduction in cell viability incubated for 24 hrs by MTT assay; assay type: functional, cell-based
HCT-15 = experiment: Growth inhibition of human HCT-15 cells incubated for 72 hrs by SRB assay; assay type: functional
[4] = Cytotoxicity against human HFL1 cells assessed as cell growth inhibition incubated for 24 hrs by MTT assay; assay type: toxicity, cell-based
A549 [5] = experiment: Cytotoxicity against human A549 cells assessed as reduction in cell growth incubated for 72 hrs by MTT assay; assay type: functional, cell-based; conditions: A549, 72 h
HepG2 = experiment: Cytotoxicity against human HepG2 cells assessed as reduction in cell growth incubated for 72 hrs by MTT assay; assay type: functional, cell-based; conditions: HepG2, 72 h
MCF7 [6] = experiment: Cytotoxicity against human MCF7 cells assessed as reduction in cell growth incubated for 72 hrs by MTT assay; assay type: functional, cell-based; conditions: MCF7, 72 h
[7] = molecular target: T2, Hepatocyte growth factor receptor (Homo sapiens, UniProt P08581); experiment: Inhibition of c-Met (unknown origin) by mobility shift assay
DNA topoisomerase 1 = DNA topoisomerase 1 (Homo sapiens, UniProt P11387); experiment: Inhibition of DNA topoisomerase I (unknown origin)
[8] = molecular target: Kinesin-like protein KIF11 (Homo sapiens, UniProt P52732); experiment: Inhibition of KSP/Eg5 (unknown origin)
A549 [9] = experiment: Antiproliferative activity against human A549 cells transfected with sh-EZH2 vector assessed as reduction in cell growth incubated for 48 hrs by MTT assay; assay type: functional, cell-based; conditions: A549, 48 h
K562 [10] = experiment: Antiproliferative activity against human K562 cells assessed as reduction in cell growth incubated for 48 hrs by MTT assay; assay type: functional, cell-based; conditions: K562, 48 h
A549 [11] = experiment: Antiproliferative activity against human A549 cells transfected with sh-empty vector assessed as reduction in cell growth incubated for 48 hrs by MTT assay; assay type: functional, cell-based; conditions: A549, 48 h
A549 [12] = experiment: Anticancer activity against human A549 cells assessed as inhibition of cell growth; assay type: functional, cell-based
U-251 = experiment: Anticancer activity against human U-251 cells assessed as reduction in cell growth; assay type: functional, cell-based
[13] = molecular target: Lysine-specific histone demethylase 1A (Homo sapiens, UniProt O60341); experiment: Inhibition of LSD1 (unknown origin)
[14] = molecular target: Vascular endothelial growth factor receptor 2 (Homo sapiens, UniProt P35968); experiment: Inhibition of VEGFR-2 (unknown origin) by ELISA analysis
[15] = Cytotoxicity against mouse NIH3T3 cells assessed as reduction in cell viability incubated for 24 hrs by MTT assay; assay type: toxicity, cell-based
T47D = experiment: Cytotoxicity against human T47D cells assessed as reduction in cell viability by MTT assay; assay type: functional, cell-based
MCF7 [16] = experiment: Cytotoxicity against human MCF7 cells assessed as reduction in cell growth by MTT assay; assay type: functional, cell-based
A2780 = experiment: Cytotoxicity against human A2780 cells assessed as reduction in cell growth by MTT assay; assay type: functional, cell-based
DU-145 = experiment: Cytotoxicity against human DU-145 cells assessed as reduction in cell growth by MTT assay; assay type: functional, cell-based
A-431 = experiment: Cytotoxicity against human A-431 cells assessed as reduction in cell growth by MTT assay; assay type: functional, cell-based
HT-29 = experiment: Cytotoxicity against human HT-29 cells assessed as reduction in cell growth by MTT assay; assay type: functional, cell-based
[17] = molecular target: Poly [ADP-ribose] polymerase 1 (Homo sapiens, UniProt P09874); experiment: Inhibition of PARP-1 (unknown origin)
[18] = molecular target: Poly [ADP-ribose] polymerase 2 (Homo sapiens, UniProt Q9UGN5); experiment: Inhibition of PARP-2 (unknown origin)
MCF7 [19] = experiment: Cytotoxicity against human MCF7 cells assessed as reduction in cell viability incubated for 96 hrs by MTT assay; assay type: functional
MDA-MB-436 = experiment: Cytotoxicity against human MDA-MB-436 cells assessed as reduction in cell viability incubated for 96 hrs by MTT assay; assay type: functional
MDA-MB-231 = experiment: Cytotoxicity against human MDA-MB-231 cells assessed as reduction in cell viability by MTT assay; assay type: functional, cell-based
SUNE1 = experiment: Anticancer activity against human SUNE1 cells assessed as reduction in cell growth; assay type: toxicity, cell-based
CNE-2 = experiment: Anticancer activity against human CNE-2 cells assessed as reduction in cell growth; assay type: functional, cell-based
K562 [20] = experiment: Antiproliferative activity against human K562 cells assessed as reduction in cell growth incubated for 48 hrs by WST-8 assay; assay type: functional, cell-based; conditions: K562, 48 h
MKN-45 = experiment: Antiproliferative activity against human MKN-45 cells assessed as reduction in cell growth incubated for 72 hrs by CCK-8 assay; assay type: functional, cell-based; conditions: MKN-45, 72 h
[21] = molecular target: T2, Hepatocyte growth factor receptor; experiment: Inhibition of human c-Met
Mushroom tyrosinase [22] = molecular target: T1, Mushroom tyrosinase; experiment: Inhibition of mushroom tyrosinase using L-DOPA as substrate preincubated for 10 mins followed by substrate addition and measured after 15 mins by spectrophotometric method; assay type: protein assay

Chain of Vascular endothelial growth factor receptor 2 (P35968 whole entry): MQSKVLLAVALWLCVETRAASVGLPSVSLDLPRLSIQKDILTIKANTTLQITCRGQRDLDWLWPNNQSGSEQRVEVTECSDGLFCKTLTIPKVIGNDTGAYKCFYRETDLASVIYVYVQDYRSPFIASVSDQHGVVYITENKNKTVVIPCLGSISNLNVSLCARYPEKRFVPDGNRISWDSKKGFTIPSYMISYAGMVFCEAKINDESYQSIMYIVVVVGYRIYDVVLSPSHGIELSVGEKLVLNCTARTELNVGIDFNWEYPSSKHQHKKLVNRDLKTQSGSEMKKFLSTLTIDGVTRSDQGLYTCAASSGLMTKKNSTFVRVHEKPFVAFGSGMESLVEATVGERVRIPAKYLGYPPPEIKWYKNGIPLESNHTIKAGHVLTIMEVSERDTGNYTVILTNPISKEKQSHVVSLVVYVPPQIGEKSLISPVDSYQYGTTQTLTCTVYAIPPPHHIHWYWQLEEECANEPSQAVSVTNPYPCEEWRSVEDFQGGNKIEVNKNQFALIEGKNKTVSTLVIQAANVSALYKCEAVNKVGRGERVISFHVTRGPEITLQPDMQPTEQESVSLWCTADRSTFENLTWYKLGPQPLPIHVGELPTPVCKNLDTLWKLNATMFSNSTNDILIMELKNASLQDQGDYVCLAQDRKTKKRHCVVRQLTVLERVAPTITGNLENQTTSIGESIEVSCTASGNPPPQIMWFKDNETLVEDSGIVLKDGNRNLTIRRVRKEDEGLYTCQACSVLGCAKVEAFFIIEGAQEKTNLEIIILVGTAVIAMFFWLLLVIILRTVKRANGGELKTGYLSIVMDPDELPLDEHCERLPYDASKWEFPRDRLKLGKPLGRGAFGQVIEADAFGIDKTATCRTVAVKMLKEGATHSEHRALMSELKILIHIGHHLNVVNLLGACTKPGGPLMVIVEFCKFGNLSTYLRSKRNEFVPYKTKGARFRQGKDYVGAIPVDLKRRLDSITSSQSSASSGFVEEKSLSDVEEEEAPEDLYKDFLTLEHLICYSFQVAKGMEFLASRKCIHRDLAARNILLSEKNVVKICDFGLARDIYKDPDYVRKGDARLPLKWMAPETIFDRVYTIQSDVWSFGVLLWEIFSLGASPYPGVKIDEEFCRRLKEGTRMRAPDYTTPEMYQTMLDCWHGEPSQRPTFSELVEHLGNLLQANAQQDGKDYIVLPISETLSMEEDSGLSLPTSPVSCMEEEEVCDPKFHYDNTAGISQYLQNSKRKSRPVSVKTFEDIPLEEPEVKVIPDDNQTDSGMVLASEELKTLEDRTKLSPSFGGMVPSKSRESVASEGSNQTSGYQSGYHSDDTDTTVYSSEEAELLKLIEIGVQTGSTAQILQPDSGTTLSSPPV
T2 sequence (P08581 whole entry): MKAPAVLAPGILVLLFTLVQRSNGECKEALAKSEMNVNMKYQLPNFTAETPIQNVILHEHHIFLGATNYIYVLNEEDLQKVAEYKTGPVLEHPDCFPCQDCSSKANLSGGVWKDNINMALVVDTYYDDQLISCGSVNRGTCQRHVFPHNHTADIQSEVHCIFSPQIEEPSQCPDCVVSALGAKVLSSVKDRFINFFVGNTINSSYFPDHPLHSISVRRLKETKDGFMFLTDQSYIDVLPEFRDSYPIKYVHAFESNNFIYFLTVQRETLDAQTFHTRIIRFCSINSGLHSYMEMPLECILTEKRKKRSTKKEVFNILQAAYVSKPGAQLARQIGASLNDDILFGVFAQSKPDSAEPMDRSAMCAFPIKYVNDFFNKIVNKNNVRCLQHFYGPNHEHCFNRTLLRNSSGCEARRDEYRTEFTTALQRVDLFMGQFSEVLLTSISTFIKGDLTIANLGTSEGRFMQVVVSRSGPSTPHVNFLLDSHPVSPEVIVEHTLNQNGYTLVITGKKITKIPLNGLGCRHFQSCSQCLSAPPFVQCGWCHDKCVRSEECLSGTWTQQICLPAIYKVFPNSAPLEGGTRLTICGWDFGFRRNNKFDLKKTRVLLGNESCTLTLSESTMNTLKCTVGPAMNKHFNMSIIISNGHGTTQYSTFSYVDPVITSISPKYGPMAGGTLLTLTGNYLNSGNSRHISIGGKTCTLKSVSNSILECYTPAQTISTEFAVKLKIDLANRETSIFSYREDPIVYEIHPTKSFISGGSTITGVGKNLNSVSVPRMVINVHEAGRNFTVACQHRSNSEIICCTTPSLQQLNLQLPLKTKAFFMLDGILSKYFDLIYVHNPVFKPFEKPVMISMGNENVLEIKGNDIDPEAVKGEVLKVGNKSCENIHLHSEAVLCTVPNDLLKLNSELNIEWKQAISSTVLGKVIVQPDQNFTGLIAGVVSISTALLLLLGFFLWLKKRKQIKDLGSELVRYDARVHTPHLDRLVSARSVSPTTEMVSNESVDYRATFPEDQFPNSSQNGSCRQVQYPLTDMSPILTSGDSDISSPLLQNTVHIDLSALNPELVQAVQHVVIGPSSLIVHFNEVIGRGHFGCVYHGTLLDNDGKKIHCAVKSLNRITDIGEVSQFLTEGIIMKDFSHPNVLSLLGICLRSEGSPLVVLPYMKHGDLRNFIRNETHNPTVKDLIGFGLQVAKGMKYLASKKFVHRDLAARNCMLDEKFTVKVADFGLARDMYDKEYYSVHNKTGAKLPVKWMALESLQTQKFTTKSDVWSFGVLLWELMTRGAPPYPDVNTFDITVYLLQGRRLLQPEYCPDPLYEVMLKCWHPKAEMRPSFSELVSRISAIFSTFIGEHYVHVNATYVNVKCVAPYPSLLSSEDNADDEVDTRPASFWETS
Chain of DNA topoisomerase 1 (P11387 whole entry): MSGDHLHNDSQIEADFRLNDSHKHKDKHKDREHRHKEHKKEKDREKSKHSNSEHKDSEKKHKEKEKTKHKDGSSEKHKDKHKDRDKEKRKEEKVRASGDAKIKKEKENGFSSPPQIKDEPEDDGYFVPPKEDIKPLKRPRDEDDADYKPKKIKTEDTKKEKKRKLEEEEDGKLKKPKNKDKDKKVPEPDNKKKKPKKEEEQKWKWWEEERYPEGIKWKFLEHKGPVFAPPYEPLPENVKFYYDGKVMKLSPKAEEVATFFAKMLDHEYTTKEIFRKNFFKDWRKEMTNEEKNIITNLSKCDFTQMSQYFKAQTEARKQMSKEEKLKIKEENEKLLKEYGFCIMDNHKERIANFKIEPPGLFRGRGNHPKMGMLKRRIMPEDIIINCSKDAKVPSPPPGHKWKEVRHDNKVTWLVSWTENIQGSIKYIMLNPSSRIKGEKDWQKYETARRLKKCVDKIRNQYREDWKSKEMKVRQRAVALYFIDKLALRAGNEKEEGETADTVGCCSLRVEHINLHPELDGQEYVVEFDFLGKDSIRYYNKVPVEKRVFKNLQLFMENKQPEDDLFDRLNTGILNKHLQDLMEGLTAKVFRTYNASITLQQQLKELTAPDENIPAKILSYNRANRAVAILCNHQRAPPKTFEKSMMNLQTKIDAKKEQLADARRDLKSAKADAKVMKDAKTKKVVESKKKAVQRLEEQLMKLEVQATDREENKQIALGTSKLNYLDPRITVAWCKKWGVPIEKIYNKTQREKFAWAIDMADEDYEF
Chain of Kinesin-like protein KIF11 (P52732 whole entry): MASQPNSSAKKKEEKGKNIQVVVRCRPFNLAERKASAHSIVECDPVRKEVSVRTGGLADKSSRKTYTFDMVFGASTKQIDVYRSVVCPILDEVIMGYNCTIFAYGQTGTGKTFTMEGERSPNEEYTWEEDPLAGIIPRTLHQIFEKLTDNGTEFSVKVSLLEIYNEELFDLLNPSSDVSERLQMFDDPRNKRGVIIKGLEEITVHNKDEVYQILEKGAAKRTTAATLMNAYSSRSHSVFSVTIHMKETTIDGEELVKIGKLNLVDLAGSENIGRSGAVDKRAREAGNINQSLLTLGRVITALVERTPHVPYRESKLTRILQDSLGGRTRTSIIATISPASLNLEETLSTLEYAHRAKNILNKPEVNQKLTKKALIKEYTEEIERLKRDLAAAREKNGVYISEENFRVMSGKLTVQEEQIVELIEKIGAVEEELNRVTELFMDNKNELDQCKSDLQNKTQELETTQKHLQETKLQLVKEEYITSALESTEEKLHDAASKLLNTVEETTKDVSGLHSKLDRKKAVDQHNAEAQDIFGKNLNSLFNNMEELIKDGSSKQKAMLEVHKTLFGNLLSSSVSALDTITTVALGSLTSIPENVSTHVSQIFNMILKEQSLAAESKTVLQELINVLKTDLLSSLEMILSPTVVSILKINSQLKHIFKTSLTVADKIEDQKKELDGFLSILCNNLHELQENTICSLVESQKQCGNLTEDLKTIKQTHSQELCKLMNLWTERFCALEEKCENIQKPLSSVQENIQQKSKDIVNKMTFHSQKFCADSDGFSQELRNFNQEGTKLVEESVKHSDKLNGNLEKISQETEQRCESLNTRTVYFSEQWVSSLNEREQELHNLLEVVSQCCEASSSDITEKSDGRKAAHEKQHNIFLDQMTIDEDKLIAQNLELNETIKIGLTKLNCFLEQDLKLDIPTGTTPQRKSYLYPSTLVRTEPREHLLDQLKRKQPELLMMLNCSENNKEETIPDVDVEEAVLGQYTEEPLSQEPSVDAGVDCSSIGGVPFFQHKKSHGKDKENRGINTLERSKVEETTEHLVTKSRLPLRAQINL
Chain of Tyrosinase (P14679 whole entry): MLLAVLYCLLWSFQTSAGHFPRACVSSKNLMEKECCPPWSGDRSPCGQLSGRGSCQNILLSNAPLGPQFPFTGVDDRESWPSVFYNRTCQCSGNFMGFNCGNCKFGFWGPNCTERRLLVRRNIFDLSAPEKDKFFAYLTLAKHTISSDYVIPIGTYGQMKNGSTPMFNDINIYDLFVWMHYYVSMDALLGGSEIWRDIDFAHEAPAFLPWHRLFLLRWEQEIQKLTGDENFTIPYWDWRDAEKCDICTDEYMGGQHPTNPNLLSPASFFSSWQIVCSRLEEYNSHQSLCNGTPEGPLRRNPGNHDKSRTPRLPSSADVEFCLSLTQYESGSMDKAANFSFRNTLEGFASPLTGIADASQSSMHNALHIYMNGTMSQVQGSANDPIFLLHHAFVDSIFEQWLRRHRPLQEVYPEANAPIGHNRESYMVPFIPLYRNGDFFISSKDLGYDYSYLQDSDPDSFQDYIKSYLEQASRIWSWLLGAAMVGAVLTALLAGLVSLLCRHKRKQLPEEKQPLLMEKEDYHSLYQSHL

With `NC(=S)N/N=C/c1ccc[nH]1` as the compound, how does the IC50 (Mushroom tyrosinase [1]) read?
The IC50 was 3.99 µM.

For `O=C(N/N=C/c1ccc(O)cc1)c1cc2ccccc2[nH]1`, which IC50 (Tyrosinase) is on record?
Its IC50 is 175 µM.

What about the IC50 (Mushroom tyrosinase [1]) of the same compound?
Its IC50 is 0.07 µM.

Which IC50 (HUVEC) does the source give for `Cc1c(OCC(O)CN2CCN(C)CC2)cn2ncnc(Oc3ccc(NC(=O)C4(C(=O)Nc5ccc(F)cc5)CC4)cc3F)c12` (configuration not stated) here?
The IC50 was 5 µM.

For `O=C(NNC(=S)Nc1ccc(Br)cc1)c1cc2c([nH]c3ccccc32)c(-c2cccc(O)c2)n1`, which IC50 (A549 [2]) is on record?
The IC50 was 3.63 µM.

What about the IC50 (MCF7 [3]) of the same compound?
The IC50 was 3.59 µM.

And the IC50 (MCF-12A)?
Its IC50 is 30.2 µM.

For `CSc1nnc(-c2cc3c([nH]c4ccccc43)c(-c3cccc(O)c3)n2)o1`, which IC50 (A549 [2]) is on record?
The IC50 was 4.57 µM.

And the IC50 (MCF7 [3])?
Its IC50 is 6.41 µM.

What about the IC50 (MCF-12A) of the same compound?
Its IC50 is 38.2 µM.

Which IC50 (Mushroom tyrosinase [1]) does the source give for `COc1cccc2c1c(C(=O)C(=O)Nc1cc[nH]n1)cn2Cc1ccc(F)cc1` here?
The IC50 was 372 µM.

Which results are given for `COc1ccc(OC)c(-c2nc(/C=C3/C(=O)N(Cc4ccccc4)c4ccc(Br)cc43)cc3c2[nH]c2ccccc23)c1`?
GI50 (HCT-15): 890 nM; IC50 at 24 h [4]: 49.8 µM

For `Cc1c(C(=O)Nc2ccc(Oc3ncnc4[nH]ccc34)c(F)c2)nnn1-c1ccc(F)cc1`, which IC50 (A549 [5]) is on record?
The IC50 was 4.79 µM.

What about the IC50 (HepG2) of the same compound?
The IC50 was 2030 nM.

What about the IC50 (MCF7 [6]) of the same compound?
Its IC50 is 2900 nM.

What about the IC50 [7] of the same compound?
The IC50 was 790 nM.

What does the source list for `Cc1ccc(NC(=S)NNC(=O)c2cc3c([nH]c4ccccc43)c(-c3cccc(O)c3)n2)cc1`?
IC50 (DNA topoisomerase 1): 28.1 µM; IC50 (A549 [2]): 2.57 µM; IC50 (MCF7 [3]): 6.57 µM; IC50 (MCF-12A): 16 µM; IC50 [8]: 18.8 µM

What does the source list for `Cc1cc(C)c(CNC(=O)c2c(C)cn(Cc3ccc(CC(F)(F)F)cc3)c2C)c(=O)[nH]1`?
IC50 (A549 [9]): 270 µM; IC50 (K562 [10]): 58.7 µM; IC50 (A549 [11]): 72.8 µM

Which IC50 (Mushroom tyrosinase [1]) does the source give for `COc1cccc2c1c(C(C)=O)cn2Cc1ccc(F)cc1` here?
Its IC50 is 224 µM.

With `CC(=O)n1cc(C(=O)OC(C)C)c(C#Cc2ccc(Cl)cc2)c1C(=O)OC(C)C` as the compound, how does the IC50 (A549 [12]) read?
The IC50 was 3.49 µM.

And the IC50 (U-251)?
The IC50 was 2290 nM.

Which IC50 (Mushroom tyrosinase [1]) does the source give for `CNC(=S)N/N=C/c1ccc[nH]1` here?
The IC50 was 344.83 µM.

Which IC50 [13] does the source give for `CCOCc1cccc(NC(=O)c2cc3sccc3n2C)c1CCOc1ccc(OC[C@@H]2CCNC2)cc1` here?
Its IC50 is 7.8 nM.

With `CNC(=O)c1ccccc1Sc1ccc2c(/N=N/c3cc(C)[nH]c3C)n[nH]c2c1` as the compound, how does the IC50 (HUVEC) read?
Its IC50 is 44 µM.

With `C=c1[nH]c2ccc(Br)cc2/c1=C/c1cc2c([nH]1)CN(CCN(CC)CC)C2=O` as the compound, how does the IC50 [14] read?
The IC50 was 24900 nM.

Which IC50 at 24 h [15] does the source give for `Cc1c(C(=O)C(=O)Nc2ccncc2)cc(-c2ccccc2)n1-c1ccccc1` here?
The IC50 at 24 h was > 100 µM.

What about the IC50 (T47D) of the same compound?
The IC50 was 11.8 µM.

Which results are given for `O=C(NCc1ccccc1)C(CNC(=O)C1C(C(=O)O)[C@@H]2CC[C@H]1O2)Cc1ccc[nH]1` (some centres not stated)?
IC50 (MCF7 [16]): 17 nM; IC50 (A2780): 17 nM; IC50 (DU-145): 17 nM; IC50 (A-431): 17 nM; IC50 (HT-29): 17 nM

For `CC(C)NCc1ccc(-c2[nH]c3cccc4c3c2C=NNC4=O)cc1`, which IC50 [17] is on record?
The IC50 was 14 nM.

And the IC50 [18]?
Its IC50 is 8.84 nM.

What about the CC50 (MCF7 [19]) of the same compound?
The CC50 was 22.3 µM.

What about the CC50 (MDA-MB-436) of the same compound?
Its CC50 is 980 nM.

Which IC50 [13] does the source give for `CCN1CCC(Oc2ccc(OCCc3ccccc3NC(=O)c3cc4sccc4n3C)cc2)CC1` here?
Its IC50 is 451 nM.

What does the source list for `Cc1c(C(=O)C(=O)Nc2ccncc2)cc(-c2ccccc2)n1-c1ccc(F)cc1`?
IC50 at 24 h [15]: > 100 µM; IC50 (MDA-MB-231): 11.8 µM

With `S=C(N/N=C/c1ccc[nH]1)Nc1ccccc1` as the compound, how does the IC50 (Mushroom tyrosinase [1]) read?
Its IC50 is 94.23 µM.

Which IC50 [13] does the source give for `COCc1cccc(NC(=O)c2cc3sccc3n2C)c1CCOc1ccc(OC2CCNCC2)cc1` here?
Its IC50 is 75 nM.

Which IC50 [14] does the source give for `O=C(CN1CCCCC1)Nc1cccc(-c2cc3ccccc3[nH]2)c1` here?
Its IC50 is 1140 nM.

With `O=C(N/N=C/c1ccc([N+](=O)[O-])n1Cc1cccc(F)c1)c1cccc(O)c1O` as the compound, how does the IC50 (SUNE1) read?
The IC50 was 80 nM.

What about the IC50 (CNE-2) of the same compound?
Its IC50 is 4.43 µM.

Which IC50 (DNA topoisomerase 1) does the source give for `CCNC(=S)NNC(=O)c1cc2c([nH]c3ccccc32)c(-c2cccc(O)c2)n1` here?
The IC50 was 28.3 µM.

What about the IC50 (A549 [2]) of the same compound?
Its IC50 is 4.56 µM.

What about the IC50 (MCF7 [3]) of the same compound?
Its IC50 is 7.2 µM.

And the IC50 (MCF-12A)?
The IC50 was 28.4 µM.

What about the IC50 [8] of the same compound?
The IC50 was 32.3 µM.

Which IC50 [14] does the source give for `Cc1cc(NS(=O)(=O)c2ccc(N3C(=O)/C(=C/c4c[nH]c5ccccc45)N=C3c3ccccc3)cc2)no1` here?
The IC50 was 70 nM.

Which IC50 [14] does the source give for `Cc1cc(NS(=O)(=O)c2ccc(N3C(=O)/C(=C/c4c[nH]c5ccccc45)N=C3c3ccc(Cl)cc3)cc2)no1` here?
Its IC50 is 1610 nM.

Which IC50 (K562 [20]) does the source give for `Cc1cc(C)c(CNC(=O)c2c(C)n(Cc3ccccc3)c3ccc(OCCN4CCCCC4)cc23)c(=O)[nH]1` here?
The IC50 was 52.6 µM.

For `CNC(=O)c1ccc(-c2ccc3ncc(S(=O)(=O)n4ccc5ccccc54)n3c2)cc1F`, which IC50 (MKN-45) is on record?
Its IC50 is 9.9 nM.

What about the IC50 [21] of the same compound?
Its IC50 is 12.8 nM.

Which IC50 (Mushroom tyrosinase [22]) does the source give for `C=Cc1ccccc1-c1ccn(C)c1C#N` here?
The IC50 was 0.97 µM.
